Measured values published in publication PMC10746543, “Design principles for cyclin K molecular glue degraders” (Nature Chemical Biology, 2023).
Several values for one entry are separate records, joined by “and”; a condition that tells them apart may be missing. Equal entries are not always repeated. Where two headings read alike, the source gives them in different places.

Legend:
CDK12–cyclin K and DDB1 = target: T1, CDK12–cyclin K and DDB1 (Homo sapiens, UniProt Q16531+Q9NYV4, K965R); assay: TR-FRET ternary complex formation assay (compound titration); assay type: binding
T1 construct: His6–CDK12 (a.a. 713–1,052); full-length or beta-propeller B domain deletion (ΔBPB: a.a. 396–705 deleted) constructs of His6–DDB1ΔBPB, StrepII–Avi–DDB1, or His6–Spy–DDB1; made in house; host or cells: Trichoplusia ni High Five insect cells (baculovirus)
T1 sequence (Q9NYV4 713-1052 K965R): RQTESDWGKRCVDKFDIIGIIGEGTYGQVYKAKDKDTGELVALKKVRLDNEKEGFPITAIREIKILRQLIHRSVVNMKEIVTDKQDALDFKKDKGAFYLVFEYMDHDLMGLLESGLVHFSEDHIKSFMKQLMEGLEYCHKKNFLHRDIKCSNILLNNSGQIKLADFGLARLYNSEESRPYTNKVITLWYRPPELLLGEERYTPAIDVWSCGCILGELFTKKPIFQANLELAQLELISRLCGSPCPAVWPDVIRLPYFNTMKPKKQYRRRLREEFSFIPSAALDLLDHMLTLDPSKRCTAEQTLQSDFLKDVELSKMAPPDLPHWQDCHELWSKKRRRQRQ
T1 sequence (O75909 1-267 partner): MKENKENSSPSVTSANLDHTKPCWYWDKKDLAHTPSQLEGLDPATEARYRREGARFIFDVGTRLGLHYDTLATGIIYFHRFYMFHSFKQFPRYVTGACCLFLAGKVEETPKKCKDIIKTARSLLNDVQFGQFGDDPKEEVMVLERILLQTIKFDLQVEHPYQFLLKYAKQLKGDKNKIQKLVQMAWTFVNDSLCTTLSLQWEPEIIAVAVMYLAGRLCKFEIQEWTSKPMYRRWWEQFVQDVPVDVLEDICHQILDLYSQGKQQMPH
T1 sequence (Q16531 whole entry): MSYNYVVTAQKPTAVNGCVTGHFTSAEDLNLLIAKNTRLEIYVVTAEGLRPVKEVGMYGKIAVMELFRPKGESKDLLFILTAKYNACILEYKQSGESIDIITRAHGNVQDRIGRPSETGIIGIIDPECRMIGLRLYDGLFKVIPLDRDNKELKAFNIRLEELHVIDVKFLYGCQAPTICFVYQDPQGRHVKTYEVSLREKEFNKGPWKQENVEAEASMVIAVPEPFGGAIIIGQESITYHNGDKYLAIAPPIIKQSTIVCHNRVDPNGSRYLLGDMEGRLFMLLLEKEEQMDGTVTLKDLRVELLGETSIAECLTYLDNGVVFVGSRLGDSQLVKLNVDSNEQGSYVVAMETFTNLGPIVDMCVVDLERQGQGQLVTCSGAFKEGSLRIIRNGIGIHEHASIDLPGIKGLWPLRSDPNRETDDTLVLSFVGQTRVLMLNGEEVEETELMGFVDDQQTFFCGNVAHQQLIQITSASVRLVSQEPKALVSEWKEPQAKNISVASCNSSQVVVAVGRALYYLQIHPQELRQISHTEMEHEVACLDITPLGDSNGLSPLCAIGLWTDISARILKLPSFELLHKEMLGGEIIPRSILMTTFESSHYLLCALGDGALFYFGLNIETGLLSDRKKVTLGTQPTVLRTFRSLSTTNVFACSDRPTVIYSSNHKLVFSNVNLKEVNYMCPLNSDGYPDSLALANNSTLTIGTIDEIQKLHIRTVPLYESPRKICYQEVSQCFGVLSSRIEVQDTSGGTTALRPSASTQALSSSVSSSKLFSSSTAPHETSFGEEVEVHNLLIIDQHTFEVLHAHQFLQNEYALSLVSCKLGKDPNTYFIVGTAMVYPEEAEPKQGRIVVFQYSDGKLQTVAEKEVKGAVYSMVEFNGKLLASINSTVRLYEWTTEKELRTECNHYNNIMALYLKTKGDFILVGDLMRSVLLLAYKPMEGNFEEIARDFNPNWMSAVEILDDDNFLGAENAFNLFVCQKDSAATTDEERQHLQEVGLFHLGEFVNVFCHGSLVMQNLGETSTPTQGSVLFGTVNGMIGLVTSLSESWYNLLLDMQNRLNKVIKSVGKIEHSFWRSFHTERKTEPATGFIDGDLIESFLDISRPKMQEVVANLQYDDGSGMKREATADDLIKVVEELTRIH
Summary of the method: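 Background fluorescence is reduced by reading 70 μs after excitation, and complex formation is followed as the 520:490 nm fluorescence ratio.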

[1] = tested on: cyclin K–eGFP degradation reporter; assay: Cyclin K reporter stability analysis (dual-color cyclin K–eGFP reporter); assay type: cell-based, human; settings: source data sheet correlations; read-out: DC50
Summary of the method: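 Values reflect cyclin K–eGFP levels after a 5 h exposure, expressed as the green-to-red fluorescence ratio and scaled to three vehicle-treated controls. Measurements came from HEK293T–Cas9 reporter cells by flow cytometry.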

CDK9–cyclin T = target: T2, CDK9–cyclin T (Homo sapiens, UniProt P50750); assay: Lanthascreen kinase binding assay, CDK9; settings: for Lanthascreen TR-FRET signal (raw ratio), sheet CDK9: duplicates
T2 construct: purchased Thermo Fisher
T2 sequence (P50750 whole entry): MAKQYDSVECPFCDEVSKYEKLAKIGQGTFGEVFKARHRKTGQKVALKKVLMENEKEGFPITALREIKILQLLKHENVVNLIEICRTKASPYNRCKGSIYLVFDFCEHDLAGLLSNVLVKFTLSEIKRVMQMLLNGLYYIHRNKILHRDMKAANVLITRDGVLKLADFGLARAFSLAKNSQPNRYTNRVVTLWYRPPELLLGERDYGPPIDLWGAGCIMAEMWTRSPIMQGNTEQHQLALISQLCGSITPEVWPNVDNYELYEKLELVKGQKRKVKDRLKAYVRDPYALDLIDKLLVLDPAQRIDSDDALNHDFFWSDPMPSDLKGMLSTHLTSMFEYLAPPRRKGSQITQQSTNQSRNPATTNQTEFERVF
T2 sequence (O60563 whole entry partner): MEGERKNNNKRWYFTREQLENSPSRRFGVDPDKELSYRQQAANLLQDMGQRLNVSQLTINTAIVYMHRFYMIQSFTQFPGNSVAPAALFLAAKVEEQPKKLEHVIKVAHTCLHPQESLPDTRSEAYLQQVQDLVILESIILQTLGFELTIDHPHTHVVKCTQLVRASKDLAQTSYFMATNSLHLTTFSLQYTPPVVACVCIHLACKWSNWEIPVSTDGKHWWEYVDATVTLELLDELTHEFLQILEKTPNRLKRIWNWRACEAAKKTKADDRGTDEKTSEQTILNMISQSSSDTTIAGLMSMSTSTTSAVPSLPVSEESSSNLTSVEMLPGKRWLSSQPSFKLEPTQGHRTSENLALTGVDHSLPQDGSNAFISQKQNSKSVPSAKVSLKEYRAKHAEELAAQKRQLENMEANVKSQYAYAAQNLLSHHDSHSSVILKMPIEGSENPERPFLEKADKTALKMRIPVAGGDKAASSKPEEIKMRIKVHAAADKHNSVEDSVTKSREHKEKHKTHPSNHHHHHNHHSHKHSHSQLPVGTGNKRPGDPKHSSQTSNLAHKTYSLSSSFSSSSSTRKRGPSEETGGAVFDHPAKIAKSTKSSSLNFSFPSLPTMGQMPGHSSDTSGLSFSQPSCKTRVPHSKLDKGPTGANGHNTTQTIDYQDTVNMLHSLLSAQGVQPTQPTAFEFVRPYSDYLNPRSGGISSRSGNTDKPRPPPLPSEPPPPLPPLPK
Protocol: (§1) Lanthascreen experiments were performed using commercially available reagents (Thermo Fisher) and according to the manufacturer’s instructions.

CDK2–cyclin A = target: T3, CDK2–cyclin A (Homo sapiens, UniProt P24941); assay: Lanthascreen kinase binding assay, CDK2; settings: for Lanthascreen signal, sheet CDK2: raw replicates
T3 construct: purchased Thermo Fisher
Protocol: as §1

O=C(CSc1nnc2c(n1)[nH]c1ccccc12)Nc1ccc(Cl)cn1 [dCeMM2]
TR-FRET signal (CDK12–cyclin K and DDB1; compound concentration 0.468 nM): 0.3316 and 0.3176
TR-FRET signal (CDK12–cyclin K and DDB1; compound concentration 2.16 nM): 0.3609 and 0.3684
TR-FRET signal (CDK12–cyclin K and DDB1; compound concentration 3.6 nM): 0.446 and 0.4561
TR-FRET signal (CDK12–cyclin K and DDB1; compound concentration 4.68 nM): 0.2526 and 0.2575
TR-FRET signal (CDK12–cyclin K and DDB1; compound concentration 7.92001 nM): 0.6045 and 0.6093
TR-FRET signal (CDK12–cyclin K and DDB1; compound concentration 15.84 nM): 0.8627 and 0.8782
TR-FRET signal (CDK12–cyclin K and DDB1; compound concentration 21.6 nM): 0.6074 and 0.6249
TR-FRET signal (CDK12–cyclin K and DDB1; compound concentration 30.96 nM): 1.396 and 1.344
TR-FRET signal (CDK12–cyclin K and DDB1; compound concentration 36 nM): 1.231 and 1.287
TR-FRET signal (CDK12–cyclin K and DDB1; compound concentration 62.6401 nM): 1.902 and 1.956
TR-FRET signal (CDK12–cyclin K and DDB1; compound concentration 79.2001 nM): 2.008 and 2.099
TR-FRET signal (CDK12–cyclin K and DDB1; compound concentration 125.28 nM): 2.531 and 2.559
TR-FRET signal (CDK12–cyclin K and DDB1; compound concentration 158.4 nM): 2.698 and 2.725
TR-FRET signal (CDK12–cyclin K and DDB1; compound concentration 244.8 nM): 3.133 and 3.085
TR-FRET signal (CDK12–cyclin K and DDB1; compound concentration 309.6 nM): 3.151 and 3.239
TR-FRET signal (CDK12–cyclin K and DDB1; compound concentration 626.401 nM): 3.549 and 3.629
TR-FRET signal (CDK12–cyclin K and DDB1; compound concentration 993.601 nM): 3.858 and 3.701
TR-FRET signal (CDK12–cyclin K and DDB1; compound concentration 1252.8 nM): 3.752 and 3.846
TR-FRET signal (CDK12–cyclin K and DDB1; compound concentration 2001.6 nM): 3.973 and 3.947
TR-FRET signal (CDK12–cyclin K and DDB1; compound concentration 2448 nM): 3.918 and 3.967
TR-FRET signal (CDK12–cyclin K and DDB1; compound concentration 9936.01 nM): 3.896 and 3.914
TR-FRET signal (CDK12–cyclin K and DDB1; compound concentration 20016 nM): 3.769 and 3.757
EC50 (CDK12–cyclin K and DDB1; in vitro complex formation, 50 nM CDK12–cyclin K, 100 nM DDB1, text and figures, read-out: TR-FRET EC50): 83 ± 4 nM
EC50 (CDK12–cyclin K and DDB1; sheet MOESM7, read-out: log TR-FRET EC50 (converted)): 83.2 nM
EC50 (CDK12–cyclin K and DDB1; source data sheet correlations, read-out: TR-FRET EC50): 83.2 nM
DC50 [1]: 633 nM
IC50 (CDK9–cyclin T; Supplementary Table 2, read-out: Lanthascreen IC50 [nM] CDK9): 1110 nM
Lanthascreen TR-FRET signal (raw ratio), sheet CDK9 (CDK9–cyclin T; compound 0.038147 nM, second titration set (r13)): 0.01383 and 0.01355
Lanthascreen TR-FRET signal (raw ratio), sheet CDK9 (CDK9–cyclin T; compound 0.152588 nM, second titration set (r13)): 0.0139 and 0.01441
Lanthascreen TR-FRET signal (raw ratio), sheet CDK9 (CDK9–cyclin T; compound 0.610352 nM, second titration set (r13)): 0.01347 and 0.01396
Lanthascreen TR-FRET signal (raw ratio), sheet CDK9 (CDK9–cyclin T; compound 1.02544 nM, first titration set (r1)): 0.01429 and 0.01561
Lanthascreen TR-FRET signal (raw ratio), sheet CDK9 (CDK9–cyclin T; compound 3.15521 nM, first titration set (r1)): 0.01467 and 0.01402
Lanthascreen TR-FRET signal (raw ratio), sheet CDK9 (CDK9–cyclin T; compound 9.46563 nM, first titration set (r1)): 0.01439 and 0.01388
Lanthascreen TR-FRET signal (raw ratio), sheet CDK9 (CDK9–cyclin T; compound 9.76563 nM, second titration set (r13)): 0.01427 and 0.01339
Lanthascreen TR-FRET signal (raw ratio), sheet CDK9 (CDK9–cyclin T; compound 31.5521 nM, first titration set (r1)): 0.01459 and 0.0177
Lanthascreen TR-FRET signal (raw ratio), sheet CDK9 (CDK9–cyclin T; compound 39.0625 nM, second titration set (r13)): 0.01365 and 0.01337
Lanthascreen TR-FRET signal (raw ratio), sheet CDK9 (CDK9–cyclin T; compound 99.3891 nM, first titration set (r1)): 0.01319 and 0.01787
Lanthascreen TR-FRET signal (raw ratio), sheet CDK9 (CDK9–cyclin T; compound 156.25 nM, second titration set (r13)): 0.01319 and 0.01335
Lanthascreen TR-FRET signal (raw ratio), sheet CDK9 (CDK9–cyclin T; compound 315.521 nM, first titration set (r1)): 0.01154 and 0.01497
Lanthascreen TR-FRET signal (raw ratio), sheet CDK9 (CDK9–cyclin T; compound 625 nM, second titration set (r13)): 0.01033 and 0.01039
Lanthascreen TR-FRET signal (raw ratio), sheet CDK9 (CDK9–cyclin T; compound 2500 nM, second titration set (r13)): 0.00843 and 0.008233
Lanthascreen TR-FRET signal (raw ratio), sheet CDK9 (CDK9–cyclin T; compound 3155.21 nM, first titration set (r1)): 0.01003 and 0.01129
Lanthascreen TR-FRET signal (raw ratio), sheet CDK9 (CDK9–cyclin T; compound 10000 nM, second titration set (r13)): 0.006379 and 0.005879
Lanthascreen TR-FRET signal (raw ratio), sheet CDK9 (CDK9–cyclin T; compound 10002 nM, first titration set (r1)): 0.009746 and 0.009366
Lanthascreen signal, sheet CDK2 (CDK2–cyclin A; Compound 0.038147 nM, experiment r13-r23): 0.01324 and 0.0125
Lanthascreen signal, sheet CDK2 (CDK2–cyclin A; Compound 0.152588 nM, experiment r13-r23): 0.01322 and 0.0127
Lanthascreen signal, sheet CDK2 (CDK2–cyclin A; Compound 0.610352 nM, experiment r13-r23): 0.01294 and 0.01324
Lanthascreen signal, sheet CDK2 (CDK2–cyclin A; Compound 1.02544 nM, experiment r1-r11): 0.01157 and 0.009543
Lanthascreen signal, sheet CDK2 (CDK2–cyclin A; Compound 3.15521 nM, experiment r1-r11): 0.01134 and 0.008854
Lanthascreen signal, sheet CDK2 (CDK2–cyclin A; Compound 9.46563 nM, experiment r1-r11): 0.008629 and 0.01226
Lanthascreen signal, sheet CDK2 (CDK2–cyclin A; Compound 9.76563 nM, experiment r13-r23): 0.01333 and 0.01313
Lanthascreen signal, sheet CDK2 (CDK2–cyclin A; Compound 31.5521 nM, experiment r1-r11): 0.009538 and 0.01114
Lanthascreen signal, sheet CDK2 (CDK2–cyclin A; Compound 39.0625 nM, experiment r13-r23): 0.01348 and 0.0134
Lanthascreen signal, sheet CDK2 (CDK2–cyclin A; Compound 99.3891 nM, experiment r1-r11): 0.01108 and 0.01101
Lanthascreen signal, sheet CDK2 (CDK2–cyclin A; Compound 156.25 nM, experiment r13-r23): 0.01287 and 0.01355
Lanthascreen signal, sheet CDK2 (CDK2–cyclin A; Compound 315.521 nM, experiment r1-r11): 0.0103 and 0.01153
Lanthascreen signal, sheet CDK2 (CDK2–cyclin A; Compound 625 nM, experiment r13-r23): 0.01294 and 0.01314
Lanthascreen signal, sheet CDK2 (CDK2–cyclin A; Compound 2500 nM, experiment r13-r23): 0.01073 and 0.0108
Lanthascreen signal, sheet CDK2 (CDK2–cyclin A; Compound 3155.21 nM, experiment r1-r11): 0.01038 and 0.01039
Lanthascreen signal, sheet CDK2 (CDK2–cyclin A; Compound 10000 nM, experiment r13-r23): 0.01123 and 0.01202
Lanthascreen signal, sheet CDK2 (CDK2–cyclin A; Compound 10002 nM, experiment r1-r11): 0.01161 and 0.009572
IC50 (CDK2–cyclin A; Lanthascreen, average, Extended Data Fig. 8, read-out: CDK2 IC50): > 10000 nM
IC50 (CDK2–cyclin A; Supplementary Table 2, read-out: Lanthascreen IC50 [nM] CDK2): > 10000 nM
